These results are taken from US8575145B2, “Triazolopyridine compounds as PIM kinase inhibitors” (Array BioPharma Inc., priority 2008, dated 2013).

By IC50 is commonly meant the concentration that gives 50% inhibition.

The test system of one test is CD4+ T cells. Kind of test: T Cell in vitro Functional Assay (C): IL-4 production. Type of test: cell-based. Conditions: Mus musculus; CD4+ T cells cultured with IL-4/anti-IFNγ, anti-CD3 restimulation 18 hours, ELISA. The procedure: The in vitro assays to assess the effects of the compounds of Examples 16, 18 and 26 on T cells were conducted as described in assays A, B, C and D below. CD4+ T cells were isolated from red blood cell-depleted splenocytes of C57B1/6J mice (Jackson Laboratories, catalog #000664) using CD4+ T cell isolation kit (Miltenyi, catalog #130-090-860).
In assay (C), 1000000 cells/mL of purified CD4+ T cells were mixed with 1 μg/mL anti-CD28, 10 ng/mL IL-4 (R&D Systems cat #404-ML-010/CF) and 2 μg/mL anti-IFNγ (R&D Systems cat #AB-485-NA) and placed into plates coated with 1 μg/mL anti-CD3. After 5 days, cells were harvested, washed and incubated overnight at 37° 5% CO2. The following day, 50,000 cells were plated into each well of a 96 well plate. A dilution series of compounds were prepared at 200× the final concentration in DMSO, then 10×stocks were prepared by dilution in cell culture media. 10 μL of 10× stocks were added to the cells in the 96 well plate and incubated for 2 hours at 37° C., 5% CO2. Cell/compound mixtures were then transferred to well coated with 0.1 μg anti-CD3 and incubated at 37° C., 5% CO2. Culture supernatants were removed 18 hours later and tested for IL-4 levels by ELISA (R&D Systems catalog #DY404). ELISA plates were quantified relative to a standard curve using Molecular Devices Versamax Reader at […] and Softmax Pro software.
For each of assays A, B, C and D, the values for each well were converted to a percent of vehicle-treated (DMSO) control (POC). These POC values were plotted as a function of compound concentration and an IC50 calculated using a 4-parameter curve-fit analysis program.
(In general: An ELISA detects its analyte on a solid surface through an enzyme-linked reagent.)

Test [1] has as its system MV4-11 (Acute myelogenous leukemia). Kind of test: Cellular Proliferation Assay, cell line C. Type of test: cell-based. Conditions: Homo sapiens; MV4-11, 72 hours, CelltiterBlue; read-out: Cell Line C antiproliferative IC50. The procedure: (§1) The assay for determination of the antiproliferative activity of multiple Pim inhibitors in the JAK2-driven cell lines was conducted as follows. Cells were plated out to 96-well plates at an initial density of 10,000 cells/well in 95 pt. Compounds were prepared at […] in DMSO by conducting 3-fold serial dilutions to give a 10-point dosing curve having a high dose of 1000 μM. Aliquots (5 μt) of these dilutions were then transferred to the appropriate wells of the 96-well plates containing cells to yield a final DMSO concentration of 0.5%. The cells were then incubated with compound for 72 hours at 37° C., 5% CO2. CelltiterBlue reagent (Promega, Catalog #: G8080) was then added (20 μL/well) and incubated at 37° C., 5% CO2 for 1-8 hours depending on the cell line being analyzed. The plate was then quantified employing a fluorescence plate reader (Model: Gemini [Molecular Devices]; Settings: 560 nm (Ex)/590 nm (Em) 570 nm (cut-off) [CellTiter Blue Assay].
The values for each well were then converted to a percent of untreated control (POC). These POC values were then plotted as a function of compound concentration. A 4-parameter curve-fit analysis was performed for each compound dilution and an IC50 value was calculated from this curve. […]
Background: Resazurin is reduced to fluorescent resorufin, in cell work by metabolically active cells.

For test [2], the system named is C57BL/6J mice, MOG-induced EAE. Kind of test: MOG(35-55)-induced Experimental Autoimmune Encephalomyelitis. The class given is in vivo, mouse. To be noted: 200 mg/kg oral gavage twice daily, days 7 through 27; vehicle and untreated 3.0. The procedure: To further determine the effect of compounds of Formula I on an autoimmune disease associated with T cells and cytokines, a MOG-induced experimental autoimmune encephalomyelitis (EAE) experiment was performed. MOG-induced EAE is an animal model of human multiple sclerosis (Brain (2006), 129, 1953-1971).
On Day 0, C57BL/6J mice (Jackson Laboratories #000664, 6-8 weeks of age) were injected subcutaneously with 100 μL of complete Freund's adjuvant (CFA) prepared as a 1:1 emulsion of (a) incomplete Freund's adjuvant (Difco, catalog #263910) containing 8 mg/mL m. tuberculosis H37RA (Difco, catalog #231141) and (b) phosphate buffered saline (PBS) containing 1 mg/mL MOG(35-55) peptide (California Peptide Research Inc). On the day 0 and 2, mice were injected intravenously with 200 ng of pertussis toxin (List Biological Laboratories, catalog #181). On day 7, the mice were randomized into treatment groups which received vehicle (distilled water) or the compound of Example 26 (200 mg/kg) administered by oral gavage twice daily from days 7 through 27.
The mice were scored daily on days 7 through 37 using the following clinical scoring system:
1.5—unsteady gait, mild hind limb ataxia
2.0—partial hind limb paralysis (hind limbs carrying weight)
2.5—partial hind limb paralysis (hind limbs not carrying weight)
3.0—full hind limb paralysis
3.5—full hind limb paralysis and partial front limb paralysis

For the next test, the target named is PIM-1 (Homo sapiens (Human), UniProt P11309). Kind of test: PIM-1 Enzyme Assay. Type of test: biochemical. The procedure, abridged: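 Radiometric kinase assay in 20 mM K+MOPS pH 7.4, 10 mM MgCl2, 0.005% Tween-20, 1 mM DTT, 2% DMSO final; 60 min at 22° C, stopped with H3PO4, product captured on P81 filter and counted by scintillation. IC50 from 4-parameter logistic fit of percent of control.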

Test [3] deals with HepG2 (Hepatocellular Carcinoma). Kind of test: Cellular Proliferation Assay, cell line E. Type of test: cell-based. Conditions: Homo sapiens; HepG2, 72 hours, CelltiterBlue; read-out: Cell Line E antiproliferative IC50. The procedure:
as §1
(§2) The values for each well were then converted to a percent of untreated control (POC). These POC values were then plotted as a function of compound concentration. A 4-parameter curve-fit analysis was performed for each compound dilution and an IC50 value was calculated from this curve.
(§3) Cell lines • A: PC3 (Androgen independent prostate cancer) • B: K562 (Ph+chronic myelogenous leukemia) • C: MV4-11 (Acute myelogenous leukemia) • D: BxPC3 (Pancreatic Cancer) • E: HepG2 (Hepatocellular Carcinoma) • F: BaF3 (Mouse pro-B-cell line) • G: BaF3 TEL-JAK2 (Mouse pro-B-cell transformed with TEL-JAK2 fusion) • H: BaF2 BCR-Ab1 (Mouse pro-B-cell transformed with BCR-Ab1 fusion)

Test [4] deals with BxPC3 (Pancreatic Cancer). Kind of test: Cellular Proliferation Assay, cell line D. Type of test: cell-based. Conditions: Homo sapiens, BXPC-3; BxPC3, 72 hours, CelltiterBlue; read-out: Cell Line D antiproliferative IC50. The procedure:
as §1, §2, §3

Where a name gives a salt, the structure may show the parent alone. Read-outs that look alike come from different tables or passages of the source.

Chain of PIM-1 (P11309 whole entry, species assumed): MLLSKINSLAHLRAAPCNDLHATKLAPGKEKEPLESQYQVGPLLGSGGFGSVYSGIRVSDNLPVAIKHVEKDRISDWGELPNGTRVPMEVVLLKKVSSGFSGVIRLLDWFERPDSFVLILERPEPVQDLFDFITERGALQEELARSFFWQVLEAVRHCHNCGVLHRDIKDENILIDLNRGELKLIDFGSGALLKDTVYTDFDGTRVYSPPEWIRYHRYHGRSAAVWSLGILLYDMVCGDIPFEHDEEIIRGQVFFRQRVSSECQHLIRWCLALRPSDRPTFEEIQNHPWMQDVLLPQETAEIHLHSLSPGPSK

On to `F[C@@H]1CNCCC1Oc1cccc2ccc(-c3nnc4ccccn34)nc12` (stereo in doubt) [Example 26, 2-([1,2,4]triazolo[4,3-a]pyridin-3-yl)-8-((cis)-3-fluoropiperidin-4-yloxy)quinoline dihydrochloride], for which the half-inhibitory concentration (IC50) with CD4+ T cells is at most 5000 nM; in test [1] it was under 2000 nM; against PIM-1 it was 3 nM. In addition, the “median maximal clinical score” value in test [2] is on record as 1.5.

On to `c1cc(OCC2CCCNC2)c2nc(-c3nnc4ccccn34)ccc2c1` (stereo not drawn) [Example 16, 2-([1,2,4]Triazolo[4,3-a]pyridin-3-yl)-8-(piperidin-3-ylmethoxy)quinoline], for which the IC50 was at most 1000 nM in the test with CD4+ T cells; over 10000 nM in test [3]; 1 nM at PIM-1 (35 μM ATP, 0.25 nM PIM-1); over 10000 nM in test [4].

Take `CC(C)(CN)COc1cccc2ccc(-c3nnc4ccccn34)nc12` [Example 18, 3-(2-([1,2,4]Triazolo[4,3-a]pyridin-3-yl)quinolin-8-yloxy)-2,2-dimethylpropan-1-amine]: the 50% inhibitory concentration (IC50) in the test with CD4+ T cells is at most 1000 nM; in test [1], under 2000 nM; in test [3], under 10000 nM; in test [4], under 10000 nM.
